Target: human TYK2 (JH2domain-pseudokinase) (Homo sapiens (Human), UniProt P29597)
Assay: TYK2 JH2 Domain Binding Assay (KINOMEscan, DiscoveRx)
Details: 11-point dilution, duplicate
Procedure, shortened: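 Kd from duplicate 11-point 3-fold dilutions starting at 30,000 nM, fitted by Hill equation with slope fixed at −1. Compounds (final 0.9% DMSO) displace DNA-tagged HEK293-expressed TYK2 JH2 fusion (<0.1 nM) from ligand-coated beads over 1 h at room temperature; eluted kinase read by qPCR.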

Chain of human TYK2 (JH2domain-pseudokinase) (P29597 556-888): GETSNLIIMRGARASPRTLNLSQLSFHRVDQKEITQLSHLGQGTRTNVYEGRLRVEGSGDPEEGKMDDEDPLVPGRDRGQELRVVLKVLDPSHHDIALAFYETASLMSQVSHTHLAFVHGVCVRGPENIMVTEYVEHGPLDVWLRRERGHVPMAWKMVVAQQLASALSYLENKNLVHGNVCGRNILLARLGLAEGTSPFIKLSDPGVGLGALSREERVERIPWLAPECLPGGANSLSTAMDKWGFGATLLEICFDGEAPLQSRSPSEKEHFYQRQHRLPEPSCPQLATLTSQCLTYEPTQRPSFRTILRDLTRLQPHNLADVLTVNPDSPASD

SMILES	Kd [nM]
Cc1nc(-c2ccc(Nc3cc(NC(=O)C4CC4)nc4[nH]c(C(F)F)nc34)c(S(C)(=O)=O)c2)c(C)s1 [I-481, N-(2-(difluoromethyl)-7-((4-(2,5-dimethylthiazol-4-yl)-2-(methylsulfonyl)phenyl)amino)-3H-imidazo[4,5-b]pyridin-5-yl)cyclopropanecarboxamide]	0.1 to 0.5
CC1(C)CSC(c2ccc(Nc3cc(NC(=O)[C@H]4CC4(F)F)nc4[nH]c(C(F)F)nc34)c(S(C)(=O)=O)c2)=N1 [I-482, (R)—N-(2-(difluoromethyl)-7-((4-(4,4-dimethyl-4,5-dihydrothiazol-2-yl)-2-(methylsulfonyl)phenyl)amino)-3H-imidazo[4,5-b]pyridin-5-yl)-2,2-difluorocyclopropane-1-carboxamide]	1 to 10
CC1(C)CSC(c2ccc(Nc3cc(NC(=O)[C@@H]4CC4(F)F)nc4[nH]c(C(F)F)nc34)c(S(C)(=O)=O)c2)=N1 [I-483, (S)—N-(2-(difluoromethyl)-7-((4-(4,4-dimethyl-4,5-dihydrothiazol-2-yl)-2-(methylsulfonyl)phenyl)amino)-3H-imidazo[4,5-b]pyridin-5-yl)-2,2-difluorocyclopropane-1-carboxamide]	> 10
Cc1nc2c(Nc3ccc(C4=NC(C)(C)CS4)cc3S(C)(=O)=O)cc(NC(=O)[C@H]3CC3(F)F)nc2[nH]1 [I-484, (R)—N-(7-((4-(4,4-dimethyl-4,5-dihydrothiazol-2-yl)-2-(methylsulfonyl)phenyl)amino)-2-methyl-3H-imidazo[4,5-b]pyridin-5-yl)-2,2-difluorocyclopropane-1-carboxamide]	1 to 10
Cc1nc2c(Nc3ccc(C4=NC(C)(C)CS4)cc3S(C)(=O)=O)cc(NC(=O)[C@@H]3CC3(F)F)nc2[nH]1 [I-485, (S)—N-(7-((4-(4,4-dimethyl-4,5-dihydrothiazol-2-yl)-2-(methylsulfonyl)phenyl)amino)-2-methyl-3H-imidazo[4,5-b]pyridin-5-yl)-2,2-difluorocyclopropane-1-carboxamide]	> 10
Cc1ncc(Nc2cc(Nc3ccc([C@H]4CCCCO4)cc3S(C)(=O)=O)c3nc(C(F)F)[nH]c3n2)nc1C [I-486, (R)-2-(difluoromethyl)-N5-(5,6-dimethylpyrazin-2-yl)-N7-(2-(methylsulfonyl)-4-(tetrahydro-2H-pyran-2-yl)phenyl)-3H-imidazo[4,5-b]pyridine-5,7-diamine]	0.1 to 0.5
Cc1ncc(Nc2cc(Nc3ccc([C@@H]4CCCCO4)cc3S(C)(=O)=O)c3nc(C(F)F)[nH]c3n2)nc1C [I-487, (S)-2-(difluoromethyl)-N5-(5,6-dimethylpyrazin-2-yl)-N7-(2-(methylsulfonyl)-4-(tetrahydro-2H-pyran-2-yl)phenyl)-3H-imidazo[4,5-b]pyridine-5,7-diamine]	0.5 to 1
Cc1nc2c(Nc3ccc(-c4nc(C)sc4C)cc3S(C)(=O)=O)cc(NC(=O)C3CC3)nc2[nH]1 [I-488, N-(7-((4-(2,5-dimethylthiazol-4-yl)-2-(methylsulfonyl)phenyl)amino)-2-methyl-3H-imidazo[4,5-b]pyridin-5-yl)cyclopropanecarboxamide]	< 0.1
CC(C)c1ccc(Nc2cc(Nc3ccccc3S(C)(=O)=O)c3nc(C(F)F)[nH]c3n2)nc1C#N [I-489, 6-((2-(difluoromethyl)-7-((2-(methylsulfonyl)phenyl)amino)-3H-imidazo[4,5-b]pyridin-5-yl)amino)-3-isopropylpicolinonitrile]	0.1 to 0.5
Cc1nc2c(Nc3ccccc3S(C)(=O)=O)cc(Nc3ccc(C(C)C)c(C#N)n3)nc2[nH]1 [I-490, 3-isopropyl-6-((2-methyl-7-((2-(methylsulfonyl)phenyl)amino)-3H-imidazo[4,5-b]pyridin-5-yl)amino)picolinonitrile]	0.1 to 0.5
Cc1c(-c2ccc(Nc3cc(Nc4cc5n(n4)CCOC5)nc4[nH]c(C(F)F)nc34)c(S(C)(=O)=O)c2)cnn1C [I-491, 2-(difluoromethyl)-N5-(6,7-dihydro-4H-pyrazolo[5,1-c][1,4]oxazin-2-yl)-N7-(4-(1,5-dimethyl-1H-pyrazol-4-yl)-2-(methylsulfonyl)phenyl)-3H-imidazo[4,5-b]pyridine-5,7-diamine]	< 0.1
Cc1nc2c(Nc3ccc(-c4cnn(C)c4C)cc3S(C)(=O)=O)cc(Nc3cc4n(n3)CCOC4)nc2[nH]1 [I-492, N5-(6,7-dihydro-4H-pyrazolo[5,1-c][1,4]oxazin-2-yl)-N7-(4-(1,5-dimethyl-1H-pyrazol-4-yl)-(methylsulfonyl)phenyl)-2-methyl-3H-imidazo[4,5-b]pyridine-5,7-diamine]	< 0.1
Cc1c(-c2ccc(Nc3cc(Nc4cccc(C(F)(F)F)n4)nc4[nH]c(C(F)F)nc34)c(S(C)(=O)=O)c2)cnn1C [I-493, 2-(difluoromethyl)-N7-(4-(1,5-dimethyl-1H-pyrazol-4-yl)-2-(methylsulfonyl)phenyl)-N5-(6-(trifluoromethyl)pyridin-2-yl)-3H-imidazo[4,5-b]pyridine-5,7-diamine]	0.1 to 0.5
Cc1cc(Nc2cc(Nc3ccc([C@H]4CCCCO4)cc3S(C)(=O)=O)c3nc(C(F)F)[nH]c3n2)nc(C)n1 [I-494, (R)-2-(difluoromethyl)-N5-(2,6-dimethylpyrimidin-4-yl)-N7-(2-(methylsulfonyl)-4-(tetrahydro-2H-pyran-2-yl)phenyl)-3H-imidazo[4,5-b]pyridine-5,7-diamine]	< 0.1
Cc1cnc(-c2ccc(Nc3cc(Nc4cc5n(n4)CCOC5)nc4[nH]c(C(F)F)nc34)c(S(C)(=O)=O)c2)s1 [I-495, 2-(difluoromethyl)-N5-(6,7-dihydro-4H-pyrazolo[5,1-c][1,4]oxazin-2-yl)-N7-(2-(methylsulfonyl)-4-(5-methylthiazol-2-yl)phenyl)-3H-imidazo[4,5-b]pyridine-5,7-diamine]	0.1 to 0.5
Cc1nc2c(Nc3ccc(-c4ncc(C)s4)cc3S(C)(=O)=O)cc(Nc3cc4n(n3)CCOC4)nc2[nH]1 [I-496, N5-(6,7-dihydro-4H-pyrazolo[5,1-c][1,4]oxazin-2-yl)-2-methyl-N7-(2-(methylsulfonyl)-4-(5-methylthiazol-2-yl)phenyl)-3H-imidazo[4,5-b]pyridine-5,7-diamine]	0.1 to 0.5
CC1(C)CC[C@H](c2ccc(Nc3cc(NC(=O)C4CC4)nc4[nH]c(C(F)F)nc34)c(S(C)(=O)=O)c2)O1 [I-498, (R)—N-(2-(difluoromethyl)-7-((4-(5,5-dimethyltetrahydrofuran-2-yl)-2-(methylsulfonyl)phenyl)amino)-3H-imidazo[4,5-b]pyridin-5-yl)cyclopropanecarboxamide]	0.1 to 0.5
CC1(C)CC[C@@H](c2ccc(Nc3cc(NC(=O)C4CC4)nc4[nH]c(C(F)F)nc34)c(S(C)(=O)=O)c2)O1 [I-499, (S)—N-(2-(difluoromethyl)-7-((4-(5,5-dimethyltetrahydrofuran-2-yl)-2-(methylsulfonyl)phenyl)amino)-3H-imidazo[4,5-b]pyridin-5-yl)cyclopropanecarboxamide]	1 to 10
COCc1nc(-c2ccc(Nc3cc(NC(=O)C4CC4)nc4[nH]c(C(F)F)nc34)c(S(C)(=O)=O)c2)sc1C [I-500, N-(2-(difluoromethyl)-7-((4-(4-(methoxymethyl)-5-methylthiazol-2-yl)-2-(methylsulfonyl)phenyl)amino)-3H-imidazo[4,5-b]pyridin-5-yl)cyclopropanecarboxamide]	0.1 to 0.5

Source: US10647713B2 (Nimbus Lakshmi, Inc., priority 2016, dated 2020)
